In this experiment the target is T1, LPA1R (Homo sapiens, UniProt Q92633).
T1 construct: host or cells: LPA1R expressing cells (Millipore, GPCR Profiler)
In words: Calcium flux assay: inhibition of LPA-stimulated Ca2+ flux (FLIPR, antagonist mode). The conditions noted are these: LPA1R Ca2+ flux functional assay, LPA1R expressing cells challenged with EC80 of LPA, read-out: LPA1 R Antagonist Activity. It is filed as cell-based. On the procedure:
Inhibition of LPA-stimulated Ca^2+ flux was used to assess compound potency using FLIPR technology in a 96 well plate format. The assay buffer used was a modified Hanks Balanced Salt Solution (HBSS) where HBSS was supplemented to contain 20 mM HEPES and 2.5 mM Probenecid at pH7.4 (Millipore, GPCR Profiler®). LPA1R expressing cells (Millipore) were plated and prepared 24 hours prior to assay of test articles. Ca^2+ ion flux was assessed from fluorescence of a Fluo-based No Wash Ca^2+ dye. Antagonist data are generated from plates with LPA concentrations sufficient to generate 80% efficacy [EC80]. Percentage inhibition was calculated from a reduction of efficacy according to concentration of compounds of Formula I-VI. For dose responses the inhibition data was used to calculate compound IC50.
The agonist assay was conducted on a FLIPR^TETRA instrument where the test compound(s), vehicle controls, and reference agonist were added to the assay plate after a fluorescence baseline was established. The agonist assay was a total of 180 seconds and was used to assess each compound's ability to activate each GPCR assayed. Upon completion of the agonist assay, the assay plate was removed from the FLIPR^TETRA and incubated at 25° C. for seven (7) minutes. After the incubation period, the assay plate was placed back in the FLIPR^TETRA and the antagonist assay was initiated.
Antagonist Assay: Using EC80 potency values determined during the agonist assay, all pre-incubated sample compound wells were challenged with EC80 concentration of reference agonist after establishment of a fluorescence baseline. The antagonist assay was conducted using the same assay plate that was used for the agonist assay. The antagonist assay was conducted on a FLIPR^TETRA instrument where 9 vehicle controls and EC80 concentration of reference agonist were added to appropriate wells. The antagonist assay was a total of 180 seconds and was used to assess each compound's ability to inhibit each GPCR assayed.
Data Processing: All assay plate data were subjected to appropriate baseline corrections. After baseline corrections were applied, maximum fluorescence values were exported and data processed to calculate percentage activation (relative to Emax reference agonist and vehicle control values), percentage inhibition (relative to EC80 and vehicle control values), and additional statistical values (i.e. Z′, percentage variation between replicate data values) to assess the quality of each plate. Where assay plate data were rejected, additional experiments were conducted. All dose response curves were generated using GraphPad Prism. The curves were fit by utilizing “Sigmoidal Dose Response (Variable Slope)” equation where the bottom parameter was fixed to “0.” Where appropriate, the top parameter was fixed to “100” to better predict potency values when a full curve was not generated by the concentrations assayed.

IC50 data for five compounds are collected here from patent publication US20230286928A1, “HETEROCYCLIC COMPOUNDS USEFUL IN THE TREATMENT OF DISEASE” (Epigen Biosciences, Inc., priority 2018, published 2023).

pIC50: −log10 of the molar value. Some results are limits rather than exact numbers.

T1 sequence (Q92633 whole entry): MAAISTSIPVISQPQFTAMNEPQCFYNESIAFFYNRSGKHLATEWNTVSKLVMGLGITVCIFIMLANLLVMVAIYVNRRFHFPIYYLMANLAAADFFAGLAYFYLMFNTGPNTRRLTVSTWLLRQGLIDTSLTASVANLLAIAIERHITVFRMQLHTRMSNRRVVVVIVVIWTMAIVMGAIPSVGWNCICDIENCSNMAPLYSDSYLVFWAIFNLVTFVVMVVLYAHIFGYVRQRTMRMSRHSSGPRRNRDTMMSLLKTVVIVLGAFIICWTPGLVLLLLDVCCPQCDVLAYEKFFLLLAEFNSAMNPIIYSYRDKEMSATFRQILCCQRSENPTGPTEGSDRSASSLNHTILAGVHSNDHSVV

Turning to `C[C@@H](OC(=O)Nc1c(Cl)cnn1-c1ccc(-c2ccc(C3(C(=O)NC#N)CC3)cc2)cc1)c1ccccc1` [Compound 24, (R)-1-phenylethyl (4-chloro-1-(4′-(1-(cyanocarbamoyl)cyclopropyl)-[1,1′-biphenyl]-4-yl)-1H-pyrazol-5-yl)carbamate], the pIC50 is 4.30 to 6.00.

Turning to `C[C@@H](OC(=O)Nc1c(Cl)cnn1-c1ccc(-c2ccc(C3(C(=O)NC#N)CC3)cc2)cc1)c1ccccc1Cl` [Compound 25, (R)-1-(2-chlorophenyl)ethyl (4-chloro-1-(4′-(1-(cyanocarbamoyl)cyclopropyl)-[1,1′-biphenyl]-4-yl)-1H-pyrazol-5-yl)carbamate], the pIC50 is 4.30 to 6.00.

`C[C@@H](OC(=O)Nc1c(F)cnn1-c1ccc(-c2ccc(C3(C(=O)NC#N)CC3)cc2F)cc1)c1ccccc1Cl` [Compound 26, (R)-1-(2-chlorophenyl)ethyl (1-(4′-(1-(cyanocarbamoyl)cyclopropyl)-2′-fluoro-[1,1′-biphenyl]-4-yl)-4-fluoro-1H-pyrazol-5-yl)carbamate]: the pIC50 is > 6.52.

For the compound `C[C@@H](OC(=O)Nc1c(C#N)cnn1-c1ccc(-c2ccc(C(C)(C)C(=O)O)cc2)cc1)c1ccccc1Cl` [Compound 27, (R)-2-(4′-(5-(((1-(2-chlorophenyl)ethoxy)carbonyl)amino)-4-cyano-1H-pyrazol-1-yl)-[1,1′-biphenyl]-4-yl)-2-methylpropanoic acid], the pIC50 is > 6.52.

Turning to `C[C@@H](OC(=O)Nc1c(C#N)cnn1-c1ccc(-c2ccc(C(C)(C)C(=O)O)cc2)cc1)c1ccccc1` [Compound 28, (R)-2-(4′-(4-cyano-5-(((1-phenylethoxy)carbonyl)amino)-1H-pyrazol-1-yl)-[1,1′-biphenyl]-4-yl)-2-methylpropanoic acid], the pIC50 was > 6.52.
